The source of these data is patent US20250313535A1, “ALPHA 4 BETA 7 INTEGRIN MODULATORS AND USES THEREOF” (DICE MOLECULES SV, INC., priority 2022, published 2025).

Structures are written as SMILES.

For one assay, the target named is α4β7 integrin (Homo sapiens (Human), UniProt P13612+P26010). The assay can be described thus: Integrin Adhesion Assay: Protocol 4 (MAdCAM-coated plate, RPMI-8866 cells with stable LOF mutation of the ITGB1 gene). The format is cell-based. Particulars: RPMI-8866 cells with stable LOF mutation of the ITGB1 gene; read-out: Mean IC50 α4β7 KO^a. The gist of the method:
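RPMI-8866 cells with CRISPR/Cas9 knockout of ITGB1 (2×10^6/mL) were added to MAdCAM-coated wells with compound (1% DMSO) in HEPES/NaCl buffer with 1 mM MnCl2, 0.1 mM CaCl2 and 1% BSA, then incubated 1 h at 37 °C. After four washes, adherent cells were quantified by CellTiter-Glo luminescence. Percent inhibition versus DMSO and control compound was fitted to 4-parameter curves.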

The next assay deals with α4β1 integrin (Homo sapiens (Human), UniProt P05556+P13612). Kind of assay: Integrin Adhesion Assay: Protocol 5 (VCAM-coated plate, RPMI-8866 cells with stable LOF mutation of the ITGB7 gene). Particulars: RPMI-8866 cells with stable LOF mutation of the ITGB7 gene; read-out: Mean IC50 α4β1 KO^b. The format is cell-based. A digest of the protocol:
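RPMI-8866 B cells with CRISPR/Cas9 ITGB7 knockout (clonal, verified by flow cytometry) adhered to VCAM-coated wells for 1 h at 37° C in HEPES/NaCl buffer with 1 mM MnCl2, 0.1 mM CaCl2, 1% BSA, 1% DMSO. Bound cells quantified by CellTiter-Glo luminescence after washing; % inhibition versus DMSO and control, 4-parameter fit.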

α4β7 integrin, sequence (P13612 34-1032): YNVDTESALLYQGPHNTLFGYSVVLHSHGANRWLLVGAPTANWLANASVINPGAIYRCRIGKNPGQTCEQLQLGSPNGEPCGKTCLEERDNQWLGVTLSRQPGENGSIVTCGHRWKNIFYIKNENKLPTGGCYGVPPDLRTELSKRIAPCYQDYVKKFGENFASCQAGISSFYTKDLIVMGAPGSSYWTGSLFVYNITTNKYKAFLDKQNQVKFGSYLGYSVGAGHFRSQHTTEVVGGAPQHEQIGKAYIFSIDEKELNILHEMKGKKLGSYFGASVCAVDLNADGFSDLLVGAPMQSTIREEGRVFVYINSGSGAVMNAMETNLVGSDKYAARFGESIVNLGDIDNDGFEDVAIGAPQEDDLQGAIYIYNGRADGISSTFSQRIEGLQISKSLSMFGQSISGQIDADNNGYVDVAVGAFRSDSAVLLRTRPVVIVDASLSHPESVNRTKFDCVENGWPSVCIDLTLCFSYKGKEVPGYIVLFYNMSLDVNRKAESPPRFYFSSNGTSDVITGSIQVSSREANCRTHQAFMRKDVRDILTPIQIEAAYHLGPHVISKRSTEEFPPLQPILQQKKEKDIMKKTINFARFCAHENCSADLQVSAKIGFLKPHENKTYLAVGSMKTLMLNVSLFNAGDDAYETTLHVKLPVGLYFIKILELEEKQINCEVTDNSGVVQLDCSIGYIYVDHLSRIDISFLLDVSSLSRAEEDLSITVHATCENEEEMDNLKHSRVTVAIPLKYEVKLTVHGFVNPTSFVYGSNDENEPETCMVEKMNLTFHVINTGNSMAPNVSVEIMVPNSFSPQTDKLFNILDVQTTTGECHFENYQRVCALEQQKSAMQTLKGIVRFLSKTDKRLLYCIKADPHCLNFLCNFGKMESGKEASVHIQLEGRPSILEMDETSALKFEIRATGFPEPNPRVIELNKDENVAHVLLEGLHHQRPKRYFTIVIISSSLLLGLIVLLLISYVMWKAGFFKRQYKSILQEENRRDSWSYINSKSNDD
α4β7 integrin, sequence (P26010 20-798): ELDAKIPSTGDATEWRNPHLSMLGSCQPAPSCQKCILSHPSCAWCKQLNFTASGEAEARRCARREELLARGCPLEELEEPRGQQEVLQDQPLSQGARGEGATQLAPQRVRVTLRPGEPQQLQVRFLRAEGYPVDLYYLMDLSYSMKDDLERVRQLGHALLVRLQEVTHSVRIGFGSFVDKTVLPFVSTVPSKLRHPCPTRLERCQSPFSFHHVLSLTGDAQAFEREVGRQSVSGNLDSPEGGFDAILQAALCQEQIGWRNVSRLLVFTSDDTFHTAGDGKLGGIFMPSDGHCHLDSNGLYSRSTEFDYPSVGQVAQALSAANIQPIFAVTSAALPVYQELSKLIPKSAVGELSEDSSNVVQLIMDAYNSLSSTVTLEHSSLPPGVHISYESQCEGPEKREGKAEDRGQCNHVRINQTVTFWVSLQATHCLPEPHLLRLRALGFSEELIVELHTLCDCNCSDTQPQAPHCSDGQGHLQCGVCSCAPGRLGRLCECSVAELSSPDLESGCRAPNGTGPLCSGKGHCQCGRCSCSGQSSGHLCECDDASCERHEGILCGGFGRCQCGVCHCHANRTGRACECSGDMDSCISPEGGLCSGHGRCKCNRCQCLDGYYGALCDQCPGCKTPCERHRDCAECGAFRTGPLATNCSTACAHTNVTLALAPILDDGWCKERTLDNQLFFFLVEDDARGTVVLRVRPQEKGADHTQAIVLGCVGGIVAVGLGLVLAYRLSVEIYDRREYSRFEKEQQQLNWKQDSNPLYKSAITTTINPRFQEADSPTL
α4β1 integrin, sequence (P13612 34-1032): as the sequence (P13612 34-1032) above
α4β1 integrin, sequence (P05556 21-798): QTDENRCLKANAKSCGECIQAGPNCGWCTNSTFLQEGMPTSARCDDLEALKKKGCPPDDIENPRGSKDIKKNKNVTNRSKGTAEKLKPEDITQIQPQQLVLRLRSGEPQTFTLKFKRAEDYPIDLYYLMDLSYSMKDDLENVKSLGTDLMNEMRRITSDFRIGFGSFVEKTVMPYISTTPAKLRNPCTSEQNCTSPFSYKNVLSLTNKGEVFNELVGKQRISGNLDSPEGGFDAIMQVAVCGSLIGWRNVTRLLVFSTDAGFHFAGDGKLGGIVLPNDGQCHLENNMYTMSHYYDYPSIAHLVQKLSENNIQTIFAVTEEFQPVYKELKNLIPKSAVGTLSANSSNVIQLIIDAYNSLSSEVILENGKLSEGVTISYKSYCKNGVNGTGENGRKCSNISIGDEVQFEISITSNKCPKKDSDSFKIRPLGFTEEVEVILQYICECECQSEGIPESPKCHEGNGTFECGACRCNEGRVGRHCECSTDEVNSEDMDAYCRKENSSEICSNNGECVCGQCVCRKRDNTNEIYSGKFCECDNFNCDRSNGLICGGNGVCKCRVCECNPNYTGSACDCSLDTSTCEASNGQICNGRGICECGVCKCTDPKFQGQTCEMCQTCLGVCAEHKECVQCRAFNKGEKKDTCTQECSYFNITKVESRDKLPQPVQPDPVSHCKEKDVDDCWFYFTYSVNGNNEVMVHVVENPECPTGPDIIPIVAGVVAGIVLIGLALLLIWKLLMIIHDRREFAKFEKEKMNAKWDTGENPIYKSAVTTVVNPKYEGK

Regarding `O=C(O)[C@H](Cc1cccc2c(-c3nccc4c(CN5CCC(F)(F)C5)cccc34)cccc12)NC(=O)C1(C(F)(F)F)CCN(C2COC2)CC1` [Compound 595], the IC50 at α4β7 integrin was less than 10 nM; at α4β1 integrin, 100 to 1000 nM.
With `COc1ccc(CN2CCCC2)c(OC)c1-c1cccc2c(C[C@H](NC(=O)c3c(C)cccc3F)C(=O)O)cccc12` [Compound 596], the IC50 at α4β7 integrin was less than 10 nM; at α4β1 integrin it was 100 to 1000 nM.
For `COc1ccc(CN2CCC(F)(F)C2)c(OC)c1-c1cccc2c(C[C@H](NC(=O)c3c(C)cccc3F)C(=O)O)cccc12` [Compound 597], in that order: 10 to 100 nM and greater than 1000 nM.
Consider `O=C(O)[C@H](Cc1cccc2c(-c3cc(CN4CCC(F)(F)C4)cc4ccncc34)cccc12)NC(=O)C1(C(F)(F)F)CCN(C2COC2)CC1` [Compound 598], for which the values for the IC50 at α4β7 integrin and on α4β1 integrin were 10 to 100 nM and greater than 1000 nM, respectively.
`COc1ccc(CN(C)C)nc1-c1cccc2c(C[C@H](NC(=O)c3c(C)cccc3F)C(=O)O)cccc12` [Compound 599]: the IC50 on α4β7 integrin is less than 10 nM; at α4β1 integrin it was 100 to 1000 nM.
For `COc1ccc(CN2CCC(F)(F)CC2)nc1-c1cccc2c(C[C@H](NC(=O)c3c(C)cccc3F)C(=O)O)cccc12` [Compound 600], in that order: 10 to 100 nM and greater than 1000 nM.
Regarding `COc1cnc(CN(C)C)cc1-c1cccc2c(C[C@H](NC(=O)c3c(C)cccc3F)C(=O)O)cccc12` [Compound 601], the IC50 on α4β7 integrin was less than 10 nM; at α4β1 integrin it was greater than 1000 nM.
The matching figures for `COc1ccc(CN(C)C)c(OC)c1-c1cccc2c(C[C@H](NC(=O)c3c(C)cc(C4CC(F)(F)C4)cc3F)C(=O)O)cccc12` [Compound 602]: less than 10 nM and greater than 1000 nM.
For `COc1ccc(CN(C)C)c(OC)c1-c1cccc2c(C[C@H](NC(=O)c3c(C)cc(C(F)(F)F)cc3F)C(=O)O)cccc12` [Compound 603], in that order: 10 to 100 nM and greater than 1000 nM.
On to `COc1ccc(CN2CCC(F)(F)CC2)c(OC)c1-c1cccc2c(C[C@H](NC(=O)c3c(C)cncc3F)C(=O)O)cccc12` [Compound 604], for which the values for the IC50 at α4β7 integrin and at α4β1 integrin were less than 10 nM and greater than 1000 nM, respectively.
For `COc1ccc(CN2CCC(F)(F)CC2)c(OC)c1-c1cccc2c(C[C@H](NC(=O)c3c(F)cccc3Cl)C(=O)O)cccc12` [Compound 605], the IC50 was 10 to 100 nM at α4β7 integrin and greater than 1000 nM at α4β1 integrin.
For `COc1ccc(CN2CCC(F)(F)CC2)c(OC)c1-c1cccc2c(C[C@H](NC(=O)c3c(C)ccnc3F)C(=O)O)cccc12` [Compound 606], in that order: 10 to 100 nM and greater than 1000 nM.
For `COc1ccc(CN(C)C)c(OC)c1-c1cccc2c(C[C@H](NC(=O)c3c(C)cc(NCC(F)(F)F)cc3F)C(=O)O)cccc12` [Compound 607], the IC50 is less than 10 nM on α4β7 integrin and 100 to 1000 nM at α4β1 integrin.
Take `COc1ccc(CN2CCC(F)(F)CC2)c(OC)c1-c1cccc2c(C[C@H](NC(=O)c3c(C)cc(NCC(F)(F)F)cc3F)C(=O)O)cccc12` [Compound 608]: the 50% inhibitory concentration (IC50) on α4β7 integrin was 10 to 100 nM; at α4β1 integrin, greater than 1000 nM.
With `COc1ccc(CN2CCC(F)(F)CC2)c(OC)c1-c1cccc2c(C[C@H](NC(=O)c3c(C)cc4cnn(CC(F)(F)F)c4c3F)C(=O)O)cccc12` [Compound 609], the IC50 on α4β7 integrin is 10 to 100 nM; at α4β1 integrin, 100 to 1000 nM.
Regarding `COc1ccc(CN(C)C)c(OC)c1-c1cccc2c(C[C@H](NC(=O)c3c(F)cccc3Cl)C(=O)O)cccc12` [Compound 610], the 50% inhibitory concentration (IC50) at α4β7 integrin is less than 10 nM; at α4β1 integrin it was 100 to 1000 nM.
Turning to `COc1ccc(CN2CCC(F)(F)CC2)c(OC)c1-c1cccc2c(C[C@H](NC(=O)C3(C(F)(F)F)CCN(C4COC4)CC3)C(=O)O)cccc12` [Compound 611], the IC50 on α4β7 integrin is less than 10 nM; at α4β1 integrin it was greater than 1000 nM.
For the compound `COc1ccc(CN(C)C)c(OC)c1-c1cccc2c(C[C@H](NC(=O)c3c(Cl)cccc3Cl)C(=O)O)cccc12` [Compound 612], the results for the IC50 on α4β7 integrin and on α4β1 integrin were less than 10 nM and 100 to 1000 nM, respectively.
For the compound `COc1ccc(CN(C)C)c(OC)c1-c1cccc2c(C[C@H](NC(=O)c3c(C)cccc3Cl)C(=O)O)cccc12` [Compound 613], the IC50 at α4β7 integrin is less than 10 nM; at α4β1 integrin, 100 to 1000 nM.
Turning to `COc1ccc(CN2CCC(F)(F)CC2)c(OC)c1-c1cccc2c(C[C@H](NC(=O)c3c(F)cncc3Cl)C(=O)O)cccc12` [Compound 614], the IC50 at α4β7 integrin lay in the range of 10 to 100 nM; at α4β1 integrin, 100 to 1000 nM.
On to `COc1ccc(CN2CCC(F)(F)CC2)c(OC)c1-c1cccc2c(C[C@H](NC(=O)c3c(F)ccnc3C)C(=O)O)cccc12` [Compound 615], for which the IC50 at α4β7 integrin is 10 to 100 nM; on α4β1 integrin it was greater than 1000 nM.
On to `COc1ccc(CN2CCC(F)(F)CC2)c(OC)c1-c1cccc2c(C[C@H](NC(=O)c3c(C)cc(C45CCOCC4C5)cc3F)C(=O)O)cccc12` (some centres unmarked) [Compound 616], for which the values for the IC50 at α4β7 integrin and at α4β1 integrin were 10 to 100 nM and greater than 1000 nM, respectively.
Turning to `CN(C)Cc1cc(-c2cccc3c(C[C@H](NC(=O)C4(C(F)(F)F)CCN(CC(F)(F)F)CC4)C(=O)O)cccc23)c2cnccc2c1` [Compound 618], the values for the IC50 at α4β7 integrin and on α4β1 integrin were 10 to 100 nM and greater than 1000 nM, respectively.
In the case of `Cc1cccc(F)c1C(=O)N[C@@H](Cc1cccc2c(-c3nccc4c(CN5CCCC5)cccc34)cccc12)C(=O)O` [Compound 619], the IC50 at α4β7 integrin was less than 10 nM; on α4β1 integrin, greater than 1000 nM.
As to `O=C(O)[C@H](Cc1cccc2c(-c3cc(CN4CCCC4)cc4ccncc34)cccc12)NC(=O)C1(C(F)(F)F)CCN(C2COC2)CC1` [Compound 620], the IC50 is less than 10 nM on α4β7 integrin and greater than 1000 nM at α4β1 integrin.
As to `COc1ccc(CN2CCCCC2)c(OC)c1-c1cccc2c(C[C@H](NC(=O)c3c(C)cccc3F)C(=O)O)cccc12` [Compound 621], the half-inhibitory concentration (IC50) at α4β7 integrin was less than 10 nM; at α4β1 integrin it was 100 to 1000 nM.
Take `CCN(CC)Cc1ccc(OC)c(-c2cccc3c(C[C@H](NC(=O)c4c(C)cccc4F)C(=O)O)cccc23)c1OC` [Compound 622]: the values for the IC50 on α4β7 integrin and on α4β1 integrin were less than 10 nM and 100 to 1000 nM, respectively.
In the case of `COc1ccc(CN2CCC3(CC2)CC3)c(OC)c1-c1cccc2c(C[C@H](NC(=O)c3c(C)cccc3F)C(=O)O)cccc12` [Compound 623], the IC50 at α4β7 integrin was less than 10 nM; on α4β1 integrin, 100 to 1000 nM.
For the compound `COc1ccc(CN2CCC(F)CC2)c(OC)c1-c1cccc2c(C[C@H](NC(=O)c3c(C)cccc3F)C(=O)O)cccc12` [Compound 624], the IC50 at α4β7 integrin is less than 10 nM; on α4β1 integrin it was 100 to 1000 nM.
Turning to `COc1ccc(CN2CCC(C)CC2)c(OC)c1-c1cccc2c(C[C@H](NC(=O)c3c(C)cccc3F)C(=O)O)cccc12` [Compound 625], the 50% inhibitory concentration (IC50) on α4β7 integrin was less than 10 nM; on α4β1 integrin it was 100 to 1000 nM.
Take `COc1ccc(CN2CCC(C)(C)CC2)c(OC)c1-c1cccc2c(C[C@H](NC(=O)c3c(C)cccc3F)C(=O)O)cccc12` [Compound 626]: the figures for the half-inhibitory concentration (IC50) on α4β7 integrin and on α4β1 integrin were less than 10 nM and 100 to 1000 nM, respectively.
`COc1ccc(CN2CC(F)(F)C2)c(OC)c1-c1cccc2c(C[C@H](NC(=O)c3c(C)cccc3F)C(=O)O)cccc12` [Compound 627]: the IC50 at α4β7 integrin was 10 to 100 nM; on α4β1 integrin, greater than 1000 nM.
`COc1ccc(CN2CCC2)c(OC)c1-c1cccc2c(C[C@H](NC(=O)c3c(C)cccc3F)C(=O)O)cccc12` [Compound 628]: the IC50 is less than 10 nM at α4β7 integrin and 100 to 1000 nM at α4β1 integrin.
Turning to `COc1ccc(CN2CCC(F)C2)c(OC)c1-c1cccc2c(C[C@H](NC(=O)c3c(C)cccc3F)C(=O)O)cccc12` (some centres unmarked) [Compound 629], the IC50 at α4β7 integrin is less than 10 nM; at α4β1 integrin it was greater than 1000 nM.
Consider `COc1ccc(CN2CCCCC2(C)C)c(OC)c1-c1cccc2c(C[C@H](NC(=O)c3c(C)cccc3F)C(=O)O)cccc12` [Compound 630], for which the values for the concentration for half-maximal inhibition (IC50) at α4β7 integrin and on α4β1 integrin were less than 10 nM and 100 to 1000 nM, respectively.
The matching figures for `COc1ccc(CN2CCCCC2C)c(OC)c1-c1cccc2c(C[C@H](NC(=O)c3c(C)cccc3F)C(=O)O)cccc12` (some centres unmarked) [Compound 631]: less than 10 nM and 100 to 1000 nM.
Regarding `COc1ccc(CN2C(C)CCCC2C)c(OC)c1-c1cccc2c(C[C@H](NC(=O)c3c(C)cccc3F)C(=O)O)cccc12` (some centres unmarked) [Compound 632], the IC50 on α4β7 integrin was less than 10 nM; on α4β1 integrin, 100 to 1000 nM.
Turning to `COc1ccc(CN2CCCC2C)c(OC)c1-c1cccc2c(C[C@H](NC(=O)c3c(C)cccc3F)C(=O)O)cccc12` (some centres unmarked) [Compound 633], the IC50 was less than 10 nM at α4β7 integrin and 10 to 100 nM at α4β1 integrin.
For `COc1ccc(CN2CCC(F)(F)CC2)c(OC)c1-c1cccc2c(C[C@H](NC(=O)c3c(C)cccc3F)C(=O)O)cccc12` [Compound 634], in that order: 10 to 100 nM and greater than 1000 nM.
As to `COc1ccc(CN2C(C)CCC2C)c(OC)c1-c1cccc2c(C[C@H](NC(=O)c3c(C)cccc3F)C(=O)O)cccc12` (some centres unmarked) [Compound 635], the IC50 is 10 to 100 nM at α4β7 integrin and greater than 1000 nM at α4β1 integrin.
The matching figures for `COc1ccc(CN(C)CCF)c(OC)c1-c1cccc2c(C[C@H](NC(=O)c3c(C)cccc3F)C(=O)O)cccc12` [Compound 636]: less than 10 nM and 100 to 1000 nM.
In the case of `COc1ccc(CN(C)CC(F)F)c(OC)c1-c1cccc2c(C[C@H](NC(=O)c3c(C)cccc3F)C(=O)O)cccc12` [Compound 637], the IC50 on α4β7 integrin is less than 10 nM; on α4β1 integrin, 100 to 1000 nM.
Turning to `COc1ccc(CN2CC(OC)C2)c(OC)c1-c1cccc2c(C[C@H](NC(=O)c3c(C)cccc3F)C(=O)O)cccc12` [Compound 638], the results for the IC50 on α4β7 integrin and at α4β1 integrin were less than 10 nM and 100 to 1000 nM, respectively.
